Values quoted from earlier work as cited in article PMC9370779, “Traditional Medicinal Uses, Phytochemistry, Biological Properties, and Health Applications of Vitex sp” (Plants, 2022).
“Also recorded” adds a separate entry of the source.

What was measured:
dopamine-D2-receptor = biological target: dopamine-D2-receptor; parameters: method as in PMID 10865453
[1] = system: cervical cancer (HeLa) cell; parameters: method as in PMID 19156599; settings: range given for both compounds together; read-out: inhibition of HeLa cell proliferation, IC50
DOR = system: DOR; parameters: method as in PMID 21163339
MOR = system: MOR; parameters: method as in PMID 21163339
[2] = system: severe myelogenous leukemia tumor (K562) cells; parameters: method as in doi:10.1016/j.jscs.2021.101298; settings: read-out: cytotoxicity against K562 cells, IC50 value
RAW 264.7 macrophages = system: RAW 264.7 macrophages; parameters: method as in PMID 25245917; settings: at 40 μM
BV-2 cells = system: BV-2 cells; parameters: method as in PMID 31448638
[3] = system: LPS-induced NO production in murine microglial cell BV-2 cells; parameters: method as in PMID 31448638; settings: read-out: inhibition of LPS-stimulated NO production, IC50
NO production = system: NO production; parameters: method as in PMID 25245917; settings: at 80 μM, the highest concentration tested

C=CC(C)(O)CCC1=C(C)C(OC(C)=O)C(OC(C)=O)C2C(C)(C)CCCC12C (stereo not drawn) [Compound 52, 6β,7β-diacetoxy-13-hydroxy-labda-8,14-diene]
affinity to the dopamine-D2-receptor, IC50 value (dopamine-D2-receptor): It showed strong affinity to the dopamine-D2-receptor with IC50 value of 15 μg/mL.

CC(=O)O[C@H]1CC[C@@]2(C)[C@@H](CC[C@@H](C)[C@]2(O)CCc2ccoc2)C1(C)C [Compound 56, Vitetrifolin H]
IC50 [1]: 4 to 28 µM

CC(=O)O[C@@H]1C[C@@H](C)[C@](O)(CCC2=CC(=O)OC2O)[C@@]2(C)CCCC(C)(C)[C@H]12 (stereo partly drawn) [Compound 58, Viteagnusin I]
activity on opioid receptor assay DOR (DOR): No activity was shown on opioid receptor assays DOR and MOR. | activity on opioid receptor assay MOR (MOR): No activity was shown on opioid receptor assays DOR and MOR.

CC(=O)OC1CC(C)C2(CCC3(COC(=O)C3)O2)C2(C)CCCC(C)(C)C12 (stereo not drawn) [Compound 99, 9-epivitexnegundin]
IC50 [2]: > 100 µM

CC1(C)CC[C@@]23CC[C@@]4(C)[C@]5(C)CC[C@H]6C(C)(C)[C@@H](O)[C@H](O)C[C@]6(C)[C@H]5CC(=O)[C@]4(OC2=O)[C@@H]3C1 [Compound 145, cannabifolin E]
cell viability of RAW 264.7 macrophages (RAW 264.7 macrophages): < 70%

O=C(O)CC1CCC(=O)C1CC=CCCOC1OC(COC(=O)C=Cc2ccc(O)c(O)c2)C(O)C(O)C1O (stereo not drawn) [Compound 159, 12-hydroxyjasmonic acid (6-O-caffeoyl)glucoside]
cytotoxic effect on BV-2 cells (BV-2 cells): no cytotoxic effect; also recorded: no effect of cytotoxicity | IC50 [3]: > 100 µM

cannabifolin F [Compound 146]
inhibition of NO production (NO production): < 50%
